Reference: US11932636B2, “RAD51 inhibitors” (Cyteir Therapeutics, Inc., priority 2019, dated 2024)

test system: Daudi cells (AID positive); assay: Compound primary screening: cell death in AID positive Daudi cells (Cell-Titer Glo, Day 7); assay type: cell-based; conditions: Homo sapiens, 168 h; Daudi cells, AID positive; cell death on Day 7, Cell-Titer Glo; read-out: Cellular activity in AID + (Daudi)
Description: Example 149. Compound Primary Screening
AID expressing cells are dependent upon RAD51 for survival; inhibiting RAD51 in AID positive cells results in a cytotoxic effect.
A 96 well u-bottom plate was prepared by writing the experiment number, plate number, date and initials in the top right corner of the plate lid. With a sterile 300 ml reservoir, and 25 ml serological pipette, evaporation buffer media was pipetted into reservoir in 25 ml increments. Using the liquid handler, 150 ul of evaporation buffer media was pipetted from reservoir into rows A and H, and Columns 1 and 12 of the 96 well u-bottom plate. Cell cultures were counted to obtain the density of cells per ml, and the culture viability. The cell density information was used to obtain 1,000,000 cells from culture using a 5 mL serological pipette into an epi tube. The cell density information from the culture was used to calculate the number of cells and volume of media needed for the assay to seed 1250 cells in 130 ul of media per available culture well in the 96 well u-bottom plate. Rows B through F were used for cells (50 wells in total), with row G left for an empty media control. The calculation was overestimated by 10 mL to account for the dead volume in the 300 ml reservoir. Once the media volume was calculated, the appropriate volume of media was pipetted in 25 mL increments into the 250 mL bottle using a 25 mL serological pipette. The 250 ml bottle was capped tightly, and placed into a 37° C. water bath for 2 minutes. While the culture media was warming, 10 mL of fresh media was pipetted from the 500 mL culture media bottle into a sterile 25 mL reservoir. Using the Eppendorf multichannel pipette, 130 ul of media was pipetted from the 25 mL reservoir into row G of the 96 well u-bottom plate. Once the 250 mL bottle of media was warmed, the volume of culture needed was pipetted into the bottle, and mixed gently with a 25 mL serological pipette as to not create bubbles, and then the contents of the bottle were pipetted into a new 300 mL reservoir. Using the liquid handler, 130 ul of culture was pipetted from the 300 mL reservoir into rows B through F of the 96 well u-bottom plate. Once the culture was added, the plate was placed into a 37° C. incubator until the compound master plate was prepared for use.
Two 96 well u-bottom plates were prepared by writing the master plate name in the upper right corner of the plate lid. Labeling one DMSO master and the other Media Master. The compounds of interest were obtained from the laboratory freezer, and placed into a 25 well storage box with a lid, and set the box aside. The compounds were vortexed after thawing but before use. Using an automatic multichannel pipette, 20 ul of 100% DMSO was pipetted into wells B3-B11 through G3-G11 of the DMSO master plate. For each compound on the master plate, 50 ul of the compound were pipetted in the appropriate well of row 2 (reference plate map to determine appropriate well). A serial dilution was prepared beginning by aspirating 20 ul from row 2 and mixing with row 3, repeating until row 11 was reached. Using the liquid handler, 194 ul of Daudi media was dispensed into wells B2-B11 through G2-G11 of the Media master plate. Using the liquid handler, 6 ul from the DMSO master plate was aspirated and dispensed into the media master plate, mixing 100 ul twice.
Compounds from master plate were then added to the culture plate. The culture plates were removed from the incubator, and set inside the biosafety cabinet. Using a liquid handler, 20 ul from wells B2 to B11 through G2 to G11 of master plate were aspirated, and dispensed into wells B2 to B11 through G2 to G11 of culture plate. This set was continued with each culture plate. Once the culture plates acquired their 20 ul of compound dilutions, they were placed back into the incubator, until their reads on Day 7 of experiment.
Cell death was measured on Day 7 of the experiment using Cell-Titer Glo and a Promega Plate reader.

Structure (SMILES) | EC50 [nM]
CCNS(=O)(=O)c1cc(N2CCCCC2)ccc1-c1cnc([C@H]2CC[C@H](NC(=O)OC(C)C)CC2)s1 [Compound 135, isopropyl trans-N-[4-[5-[2-(ethylsulfamoyl)-4-[piperidin-1-yl]phenyl]thiazol-2-yl]cyclohexyl]carbamate] | 100 to 1000
CC(C)OC(=O)N[C@H]1CC[C@H](c2ncc(-c3ccc(Nc4ncc[nH]4)cc3S(=O)(=O)N3CCCC3)s2)CC1 [Compound 92, isopropyl trans-N-[4-[5-[4-(1H-imidazol-2-ylamino)-2-pyrrolidin-1-ylsulfonyl-phenyl]thiazol-2-yl]cyclohexyl]carbamate] | 100 to 1000
CCNS(=O)(=O)c1cc(Nc2ncc[nH]2)ccc1-c1cnc([C@H]2CC[C@H](NC(=O)OC(C)C)CC2)s1 [Compound 56, isopropyl trans-N-[4-[5-[2-(ethylsulfamoyl)-4-(1H-imidazol-2-ylamino)phenyl]thiazol-2-yl]cyclohexyl]carbamate] | < 100
CC(C)OC(=O)N[C@H]1CC[C@H](c2ncc(-c3ccc(Nc4ncco4)cc3S(=O)(=O)N3CCCC3)s2)CC1 [Compound 153, isopropyl trans-[4-[5-[4-(oxazol-2-ylamino)-2-pyrrolidin-1-ylsulfonyl-phenyl]thiazol-2-yl]cyclohexyl]carbamate] | < 100
CCNS(=O)(=O)c1cc(CC(=O)N2CCCC2)ccc1-c1cnc([C@H]2CC[C@H](NC(=O)OC(C)C)CC2)s1 [Compound 82, isopropyl trans-N-[4-[5-[4-[2-oxo-2-(pyrrolidin-1-yl)ethyl]-2-(ethyl-sulfamoyl)phenyl]thiazol-2-yl]cyclohexyl]carbamate] | 100 to 1000
CCNS(=O)(=O)c1cc(CC(N)=O)ccc1-c1cnc([C@H]2CC[C@H](NC(=O)OC(C)C)CC2)s1 [Compound 86, isopropyl trans-N-[4-[5-[4-[2-amino-2-oxo-ethyl]-2-(ethyl-sulfamoyl)phenyl]thiazol-2-yl]cyclohexyl]carbamate] | 100 to 1000
CCNS(=O)(=O)c1cc(Nc2cc(C(C)C)ncn2)ccc1-c1cnc([C@H]2CC[C@H](NC(=O)OC(C)C)CC2)s1 [Compound 171, isopropyl trans-N-[4-[5-[2-(ethylsulfamoyl)-4-[(6-isopropylpyrimidin-4-yl)amino]phenyl]thiazol-2-yl]cyclohexyl]carbamate] | 100 to 1000
CCNS(=O)(=O)c1cc(Nc2cn[nH]c2)ccc1-c1cnc([C@H]2CC[C@H](NC(=O)OC(C)C)CC2)s1 [Compound 120, isopropyl trans-N-[4-[5-[2-(ethylsulfamoyl)-4-[(1H-pyrazol-4-yl)amino]phenyl]thiazol-2-yl]cyclohexyl]carbamate] | < 100
CCNS(=O)(=O)c1cc(Nc2nnc(C(C)C)s2)ccc1-c1cnc(C2CCC(NC(=O)OC(C)C)CC2)s1 (stereo not drawn) [Compound 115, isopropyl trans-N-[4-[5-[2-(ethylsulfamoyl)-4-[(5-isopropyl-1,3,4-thiadiazol-2-y)amino]phenyl]thiazol-2-yl]cyclohexyl]carbamate] | < 100
CCNS(=O)(=O)c1cc(Nc2ccncc2)ccc1-c1cnc([C@H]2CC[C@H](NC(=O)OC(C)C)CC2)s1 [Compound 125, isopropyl trans-N-[4-[5-[2-(ethylsulfamoyl)-4-[(pyridin-4-yl)amino]phenyl]thiazol-2-yl]cyclohexyl]carbamate] | < 100
CCNS(=O)(=O)c1cc(CC(=O)O)ccc1-c1cnc([C@H]2CC[C@H](NC(=O)OC(C)C)CC2)s1 [Compound 77, trans-2-[3-(ethylsulfamoyl)-4-[2-[4-(isopropoxycarbonyl-amino)cyclohexyl]thiazol-5-yl]phenyl]acetic Acid] | 1000 to 10000
CCNS(=O)(=O)c1cc(NC2COC2)ccc1-c1cnc([C@H]2CC[C@H](NC(=O)OC(C)C)CC2)s1 [Compound 137, isopropyl trans-N-[4-[5-[2-(ethylsulfamoyl)-4-[(oxetan-3-yl)amino]phenyl]thiazol-2-yl]cyclohexyl]carbamate] | < 100
CCNS(=O)(=O)c1cc(N)ccc1-c1cnc([C@H]2CC[C@H](NC(=O)OC3CC3)CC2)s1 [Compound 108, cyclopropyl trans-N-[4-[5-[4-amino-2-(ethylsulfamoyl)phenyl]thiazol-2-yl]cyclohexyl]carbamate] | < 100
COc1cc(-c2ccc(-c3cnc([C@H]4CC[C@H](NC(=O)OC(C)C)CC4)s3)c(S(=O)(=O)NC(C)(C)C)c2)c(OC)nn1 [Compound 13, isopropyl (trans-4-(5-(2-(N-(tert-butyl)sulfamoyl)-4-(3,6-dimethoxypyridazin-4-yl)phenyl)thiazol-2-yl)cyclohexyl)carbamate] | 100 to 1000
CCNS(=O)(=O)c1cc(Nc2cc(CC)cnn2)ccc1-c1cnc([C@H]2CC[C@H](NC(=O)OC(C)C)CC2)s1 [Compound 158, isopropyl trans-N-[4-[5-[4-[(5-ethylpyridazin-3-yl)amino]-2-(ethylsulfamoyl)phenyl]thiazol-2-yl]cyclohexyl]carbamate] | 100 to 1000
CCNS(=O)(=O)c1cc(NC2CN(C(=O)C(C)C)C2)ccc1-c1cnc([C@H]2CC[C@H](NC(=O)OC(C)C)CC2)s1 [Compound 146, isopropyl trans-N-[4-[5-[2-(ethylsulfamoyl)-4-[[1-(2-methylpropanoyl)azetidin-3-yl]amino]phenyl]thiazol-2-yl]cyclohexyl]carbamate] | < 100
CCNS(=O)(=O)c1cc(C(=O)O)ccc1-c1cnc([C@H]2CC[C@H](NC(=O)OC3COC3)CC2)s1 [Compound 66, trans-3-(ethylsulfamoyl)-4-[2-[4-(oxetan-3-yloxy-carbonylamino)cyclohexyl]thiazol-5-yl]benzoic acid] | 1000 to 10000
CCNS(=O)(=O)c1cc(NC2(C)COC2)ccc1-c1cnc([C@H]2CC[C@H](NC(=O)OC(C)C)CC2)s1 [Compound 116, isopropyl trans-N-[4-[5-[2-(ethylsulfamoyl)-4-[(3-methyloxetan-3-yl)amino]phenyl]thiazol-2-yl]cyclohexyl]carbamate] | < 100
CC(C)OC(=O)N[C@H]1CC[C@H](c2ncc(-c3ccc(C#N)cc3S(=O)(=O)N3CCC3)s2)CC1 [Compound 54, isopropyl trans-N-[4-[5-[2-(azetidin-1-ylsulfonyl)-4-cyano-phenyl]thiazol-2-yl]cyclohexyl]carbamate] | 1000 to 10000
CCNS(=O)(=O)c1cc(NC2(C(C)C)COC2)ccc1-c1cnc([C@H]2CC[C@H](NC(=O)OC(C)C)CC2)s1 [Compound 69, isopropyl trans-N-[4-[5-[2-(ethylsulfamoyl)-4-[(3-isopropyloxetan-3-yl)amino]phenyl]thiazol-2-yl]cyclohexyl]carbamate] | < 100
CC(C)OC(=O)N[C@H]1CC[C@H](c2ncc(-c3ccc(Nc4ncco4)cc3S(=O)(=O)NC(C)(C)C)s2)CC1 [Compound 42, isopropyl (trans-4-(5-(2-(N-(tert-butyl)sulfamoyl)-4-(oxazol-2-ylamino)phenyl)thiazol-2-yl)cyclohexyl)carbamate] | < 100
CCNS(=O)(=O)c1cc(Nc2nnc[nH]2)ccc1-c1cnc([C@H]2CC[C@H](NC(=O)OC(C)C)CC2)s1 [Compound 152, isopropyl trans-N-[4-[5-[2-(ethylsulfamoyl)-4-(4H-1,2,4-triazol-3-ylamino)phenyl]thiazol-2-yl]cyclohexyl]carbamate] | < 100
